Data reported in patent US20190160035A1, “METHOD OF TREATMENT” (QBIOTICS LIMITED, priority 2016, published 2019).
“And” between values parts separate entries of the source, which are not always exact repeats. Identical values can stand only once.

How the values were obtained:
[1] = system: cutaneous MCT or subcutaneous MCT; experiment: Example 4: long term follow up of Example 1 dogs for tumor recurrence; format: in vivo; for Tumor recurrence at case follow-up, approx. month 2 after last treatment: key: NTR = no tumor recurrence; TR = tumor recurrence; for Tumor recurrence at case follow-up, approx. month 3 after last treatment: key: NTR = no tumor recurrence; TR = tumor recurrence; for Tumor recurrence at case follow-up, approx. month 4 after last treatment: key: NTR = no tumor recurrence; TR = tumor recurrence; for Tumor recurrence at case follow-up, approx. month 5 after last treatment: key: NTR = no tumor recurrence; TR = tumor recurrence
Method: The dogs of in Example 1, treated with 1.0 mg Compound 1 per mL in 40% propylene glycol solution (0.4 mL/cm^3 tumor), were followed up post-treatment.
The attending veterinarian advised dog C03-T-04 enter a new treatment program for residual tissue mass treatment due to a putative immune deficiency, and dog C03-T-07 died on Day 4 post treatment.

[2] = system: soft tissue sarcoma (STS); experiment: Example 6: treatment of soft tissue sarcoma with intratumoral Compound 1, tumor response; format: in vivo, dogs; conditions: per dog, Compound 1 1.0 mg/mL intratumoral, first treatment
Text: Dogs were selected for the study if they met the criteria in Table 1 (Example 1) but where the dog has at least one STS. Study dogs were managed with due regard for their welfare. All animals were client-owned, treated by Australian registered veterinarians, and cases managed under their direct supervision. An enrolled dog could be removed from the study prior to study completion under the following circumstances: • 1. If at any time during the study, in the opinion of the attending veterinarian, the dog's welfare is at risk due to non-response of the tumor to Compound 1 treatment or due to a serious adverse event, the veterinarian could elect to withdraw the dog from the study. Following withdrawal, the dog's attending veterinarian could then administer supportive treatment and veterinary care that they deem is appropriate and in the best interest of the animal. • 2. […]
• 1. […] The total calculated volume of the selected STS was confirmed as ≤12.5 cm3 (determined as ½×length (cm)×width (cm)×depth (cm)). • 5. The calculated dose of drug for the dog was confirmed as ≤0.25 mg Compound 1 per kg at the Day 0 visit (maximum dose of 5 mg Compound 1). • 6. The drug was provided to veterinarians as a 1 mg/mL Compound 1 formulation in ready to use form. • 7. […] Treated tumors were observed regularly and observations recorded at days 1, 7 (+2), 14 (+2) and 28 (+2) days post-treatment. • 10. […]

[3] = Example 1: safety evaluation (clinical parameters, adverse events graded by VCOG-CTCAE); format: in vivo, Canis lupus familiaris (dog)
Method: Clinical parameters such as bodyweight (kg), rectal temperature (° C.), heart rate (HR) per minute, respiratory rate (RR) per minute, general demeanor and body function (e.g. eating, drinking, urine and stools), were collected on each enrolled dog at screening, immediately pre-treatment, at approximately 2-4 and 24 hours post-treatment, and at 7(±2), 14(±2) and 28(±2) days post treatment. An adverse event (AE) was defined as any unfavorable and unintended sign, symptom, or disease temporally associated with the use of the drug, whether or not related to the product (VCOG-CTCAE, 2011). AE were graded according to the VCOG-CTCAE classification which is a descriptive severity scale (grade system) used for AE reporting in dogs treated with antineoplastic therapy.
With the exception of swelling and pain, local tissue pathology as a result of treatment (i.e. tumor necrosis) was not considered an adverse event (AE). AEs such as rapid breathing, mild tachycardia and post treatment lethargy are generally considered to be the result of the powerful local inflammatory response and systemic activation of the dog's immune response during the treatment response phase. In this study, 44 AEs were identified in 15 event types. The majority of identified AEs (28 out of 44; […]) were represented by the ‘mild’ VCOG-CTCAE classification Grade 1 with no intervention required. With the exception of dog C03-T-07, a level of minimal medical intervention was required in only 3 cases. […] With the exception of dog C03-T-07, all reported AEs were transient in nature—resolved by 24-48 h post treatment in the majority of cases.

SMILES: C/C=C(\C)C(=O)O[C@@H]1[C@@H](C)[C@@]2(O)[C@H]([C@@H]3C(C)(C)[C@]13OC(=O)[C@@H](C)CC)[C@@H]1O[C@]1(CO)[C@@H](O)[C@]1(O)C(=O)C(C)=C[C@H]12 [Compound 1, 12-tigloyl-13-(2-methylbutanoyl)-6,7-epoxy-4,5,9,12,13,20-hexahydroxy-1-tigliaen-3-one]
- Time post treatment at which tumor recurrence was identified ([1]; 196: dog C03-N-01 (approx. 6 months), 359: dog C03-T-02 (approx. 12 months)): 196 days and 359 days
- Time the dog remained tumor free post treatment ([1]; dog C03-T-06, approx. 8 months, until euthanased for diabetes and kidney failure): 265 days
- Number of dogs with residual tumor mass on Days 28-29 post treatment (retreated) ([1]; dogs C03-N-03, C03-T-01, C03-T-03): 3
- Tumor recurrence post-repeat treatment ([1]; dogs C03-N-03, C03-T-01, C03-T-03, examined out to 389, 339 and 346 days): None of these dogs exhibited tumor recurrence
- Number of dogs treated successfully with a single treatment and no tumor recurrence within the duration of assessment ([1]; of ten dogs available for follow up): 5
- Tumor recurrence at case follow-up, approx. month 1 after last treatment ([1]; one value per dog): NTR (3×) and TR (TR = tumor recurrence)
- Tumor recurrence at case follow-up, approx. month 2 after last treatment ([1]; one value per dog): NTR
- Tumor recurrence at case follow-up, approx. month 3 after last treatment ([1]; one value per dog): NTR
- Tumor recurrence at case follow-up, approx. month 4 after last treatment ([1]; one value per dog): NTR
- Tumor recurrence at case follow-up, approx. month 5 after last treatment ([1]; one value per dog): NTR
- Tumor recurrence at case follow-up, approx. month 6 after last treatment ([1]; one value per dog): NTR
- Tumor recurrence at case follow-up, approx. month 7 after last treatment ([1]; one value per dog): NTR
- Tumor recurrence at case follow-up, approx. month 9 after last treatment ([1]; one value per dog): NTR
- Tumor recurrence at case follow-up, approx. month 11 after last treatment ([1]; one value per dog): NTR
- Tumor recurrence at case follow-up, approx. month 12 after last treatment ([1]; one value per dog): TR (TR = tumor recurrence) and NTR (4×)
- Repeat treatment required ([1]; one value per dog, Example 1 dogs): Day 28 (2×) and Nil (7×) and Day 29
- RECIST classification [2]: PR (partial response (PR, at least 30% decrease in the longest diameter of target lesion))
- Number of AEs identified ([3]; 12 dogs, 15 event types): 44
- Share of AEs of VCOG-CTCAE Grade 1 ([3]; 28 out of 44): 61.3%
- Dogs that died during the course of the study ([3]; dog C03-T-07, Day 4, veterinarian did not believe Compound 1 directly contributed): 1
- Time by which reported AEs resolved post treatment ([3]; majority of cases, except dog C03-T-07): 24 to 48 h
- Number of AEs of ‘mild’ VCOG-CTCAE Grade 1 (no intervention required) ([3]; out of 44 AEs): 28
- Cases requiring minimal medical intervention ([3]; with the exception of dog C03-T-07): 3
